Laboratory results: paper PMC7400135, “3-(5-Nitrofuran-2-yl)prop-2-en-1-one Derivatives, with Potent Antituberculosis Activity, Inhibit A Novel Therapeutic Target, Arylamine N-acetyltransferase, in Mycobacteria” (Antibiotics, 2020)
Values after ≈ are worked out from the molar mass of the structure shown. Read-outs that look alike come from different tables or passages of the source. Marks after values point to notes of the source that are not given here.

How the values were obtained:
[1] = biological target: recombinant Mycobacterium marinum N-acetyltransferase (MMNAT) (Mycobacterium marinum, UniProt B2HIZ6); assay: Inhibition of recombinant MMNAT (DTNB assay); format: biochemical
[2] = system: human monocyte THP-1 cell line; conditions: resazurin assay, 48 h incubation
[3] = system: M. aurum (NCTC 10437); assay: HT-SPOTi growth inhibition (MIC), M. aurum; format: cell-based; conditions: Mycolicibacterium aurum, NCTC10437, 120 h; HT-SPOTi agar assay, 35 °C 5 days; read-out: MIC Mycobacterium aurum
[4] = system: M. bovis BCG (ATCC 35734); assay: microbe, parasite or virus in culture; format: cell-based; conditions: Mycobacterium tuberculosis variant bovis BCG, 336 h, read-out: MIC Mycobacterium bovis BCG
[5] = system: S. aureus (ATCC 25923); assay: HT-SPOTi growth inhibition (MIC), S. aureus; format: cell-based, Staphylococcus aureus; conditions: 37 °C 16 h; for MIC Staphylococcus aureus: LB agar; for MIC: Staphylococcus aureus, ATCC25923, LB agar
[6] = system: M. tuberculosis H37Rv (ATCC 25618); assay: HT-SPOTi growth inhibition (MIC), M. tuberculosis H37Rv; format: cell-based; conditions: Mycobacterium tuberculosis; HT-SPOTi agar assay; read-out: MIC Mtb H37Rv
[7] = system: E. coli (NCTC 10538); assay: HT-SPOTi growth inhibition (MIC), E. coli; format: cell-based, Escherichia coli; conditions: 37 °C 16 h; for MIC: Escherichia coli, NCTC10538, LB agar; for MIC Escherichia coli: LB agar
[8] = system: murine macrophage RAW 264.7 cell line; conditions: resazurin assay, 48 h incubation
[9] = system: M. bovis BCG (ATCC 35734); conditions: ref Gupta and Bhakta, 2012; cited from earlier work
[10] = system: M. aurum (NCTC 10437); parameters: method as in Gupta and Bhakta, 2012; conditions: ref Gupta and Bhakta, 2012; cited from earlier work
[11] = system: M. bovis BCG infected in THP-1 macrophages; assay: microbe, parasite or virus in culture; format: cell-based, Mycobacterium bovis BCG; conditions: for ex vivo MIC as multiple of MIC: M. bovis BCG in THP-1 macrophages; for MIC: Mycobacterium tuberculosis variant bovis BCG, BCG, 48 h, read-out: ex vivo MIC
[12] = hydralazine 450 µM, acetyl CoA 400 µM, extrapolated from linear regression, read-out: IC50 MMNAT
[13] = value in brackets, same IC50 in mg/L, read-out: IC50 MMNAT

Sequence of recombinant Mycobacterium marinum N-acetyltransferase (MMNAT) (B2HIZ6 entry or part of it): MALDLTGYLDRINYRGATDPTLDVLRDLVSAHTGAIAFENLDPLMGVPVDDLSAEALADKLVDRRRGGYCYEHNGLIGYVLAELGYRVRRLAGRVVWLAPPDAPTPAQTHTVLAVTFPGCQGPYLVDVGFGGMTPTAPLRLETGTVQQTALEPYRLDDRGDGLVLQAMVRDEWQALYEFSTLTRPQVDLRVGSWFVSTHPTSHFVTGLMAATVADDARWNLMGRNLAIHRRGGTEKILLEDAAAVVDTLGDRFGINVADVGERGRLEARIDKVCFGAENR

Question: Which results are given for `O=C(/C=C/c1ccc([N+](=O)[O-])o1)c1ccc(N2CCCCC2)cc1` [Compound 2]?
Answer: IC50 [1, 12]: 269 nM; IC50 [1, 13]: 270 nM; GIC THP-1 Cell Line [2]: 62.5 mg/L; MIC [3]: > 500 µg/mL; MIC [4]: 0.0075 µg/mL (≈ 0.023 µM); MIC Staphylococcus aureus [5]: inactive; MIC [5]: > 500 µg/mL; MIC [6]: 0.031 µg/mL (≈ 0.095 µM); MIC [7]: > 500 µg/mL; MIC Escherichia coli [7]: inactive; GIC RAW 264.7 Cell Line [8]: 125 mg/L

Question: With `O=[N+]([O-])c1cn2c(n1)OC[C@@H](OCc1ccc(OC(F)(F)F)cc1)C2` [Pretomanid] as the compound, how does the IC50 [1, 12] read?
Answer: > 1000 nM

Question: And the MIC [6]?
Answer: 0.061 µg/mL (≈ 0.17 µM)

Question: Which IC50 [1] does the source give for `CO[C@H]1/C=C/O[C@@]2(C)Oc3c(C)c(O)c4c(O)c(c(/C=N/N5CCN(C)CC5)c(O)c4c3C2=O)NC(=O)/C(C)=C\C=C\[C@H](C)[C@H](O)[C@@H](C)[C@@H](O)[C@@H](C)[C@H](OC(C)=O)[C@@H]1C` [Rifampicin] here?
Answer: > 1000 nM

Question: And the MIC [6]?
Answer: 0.125 µg/mL (≈ 0.152 µM)

Question: And the “MIC Mycobacterium bovis BCG” value [9]?
Answer: 0.50 ^# mg/L

Question: What about the “MIC Mycobacterium aurum” value [10] of the same compound?
Answer: 0.40 ^# mg/L

Question: With `CC1(C)S[C@@H]2[C@H](NC(=O)[C@H](N)c3ccccc3)C(=O)N2[C@H]1C(=O)O` [Ampicillin, reference compound] as the compound, how does the MIC [4] read?
Answer: > 500 µg/mL

Question: What about the MIC [5] of the same compound?
Answer: 0.125 µg/mL (≈ 0.358 µM)

Question: What about the MIC [7] of the same compound?
Answer: 2 µg/mL (≈ 5.72 µM)

Question: For `CN(Cc1cnc2nc(N)nc(N)c2n1)c1ccc(C(=O)N[C@@H](CCC(=O)O)C(=O)O)cc1` [Methotrexate, reference compound], which “GIC THP-1 Cell Line” value [2] is on record?
Answer: 0.975 mg/L

Question: What about the MIC [4] of the same compound?
Answer: 500 µg/mL (≈ 1100 µM)

Question: And the MIC [6]?
Answer: > 500 µg/mL

Question: What about the “GIC RAW 264.7 Cell Line” value [8] of the same compound?
Answer: 0.122 mg/L

Question: Which results are given for `NNC(=O)c1ccncc1` [Isoniazid, reference compound]?
Answer: ex vivo MIC as multiple of MIC [11]: 2 × MIC; MIC [11]: 1.25 µg/mL (≈ 9.11 µM); IC50 [1, 12]: > 1000 nM; GIC THP-1 Cell Line [2]: NA^a (not active until 500 mg/L concentration); MIC [3]: 1.25 µg/mL (≈ 9.11 µM); MIC [4]: 0.625 µg/mL (≈ 4.56 µM); MIC [6]: 0.8 µg/mL (≈ 5.83 µM); GIC RAW 264.7 Cell Line [8]: NA^a (not active until 500 mg/L concentration)

Question: Which results are given for `CCN(CC)c1ccc(C(=O)/C=C/c2ccc([N+](=O)[O-])o2)cc1` [Compound 3]?
Answer: IC50 [1, 12]: 134 nM; IC50 [1, 13]: 134 nM; GIC THP-1 Cell Line [2]: 15.6 mg/L; MIC [3]: > 500 µg/mL; MIC [4]: 0.03 µg/mL (≈ 0.0954 µM); MIC [5]: 62.5 µg/mL (≈ 199 µM); MIC [6]: 0.488 µg/mL (≈ 1.55 µM); MIC [7]: 250 µg/mL (≈ 795 µM); GIC RAW 264.7 Cell Line [8]: 31.25 mg/L

Question: For `O=C(/C=C/c1ccc([N+](=O)[O-])o1)c1ccc(N2CCOCC2)cc1` [Compound 1], which “ex vivo MIC as multiple of MIC” value [11] is on record?
Answer: 4 × MIC

Question: And the MIC [11]?
Answer: 0.24 µg/mL (≈ 0.731 µM)

Question: What about the IC50 [1, 12] of the same compound?
Answer: 207 nM

Question: What about the IC50 [1, 13] of the same compound?
Answer: 207 nM

Question: What about the “GIC THP-1 Cell Line” value [2] of the same compound?
Answer: 62.5 mg/L

Question: And the MIC [3]?
Answer: > 500 µg/mL

Question: What about the MIC [4] of the same compound?
Answer: 0.06 µg/mL (≈ 0.183 µM)

Question: What about the “MIC Staphylococcus aureus” value [5] of the same compound?
Answer: inactive

Question: What about the MIC [5] of the same compound?
Answer: > 500 µg/mL

Question: What about the MIC [6] of the same compound?
Answer: 0.244 µg/mL (≈ 0.743 µM)

Question: And the MIC [7]?
Answer: > 500 µg/mL

Question: What about the “MIC Escherichia coli” value [7] of the same compound?
Answer: inactive

Question: What about the “GIC RAW 264.7 Cell Line” value [8] of the same compound?
Answer: 125 mg/L

Question: What does the source list for `CC[C@@H](CO)NCCN[C@@H](CC)CO` [Ethambutol]?
Answer: IC50 [1, 12]: > 1000 nM; MIC [6]: 2 µg/mL (≈ 9.79 µM); MIC Mycobacterium bovis BCG [9]: 2.00 ^# mg/L; MIC Mycobacterium aurum [10]: 0.10 ^# mg/L
